From ChEMBL document CHEMBL1158136, “Ashwagandhanolide, a bioactive dimeric thiowithanolide isolated from the roots of Withania somnifera” (2006) come the findings set out here.

The test system of assay [1] is AGS. The assay can be described thus: Cytotoxicity against human AGS cells by MTT assay. Type of assay: functional. (Tetrazolium dyes change colour on reduction, which living cells bring about.)
Assay [2] relates to MCF7. The assay can be described thus: Cytotoxicity against human MCF7 cells by MTT assay. It counts as functional.
Assay [3] deals with NCI-H460. Nature of the assay: Cytotoxicity against human NCI-H460 cells by MTT assay. It counts as functional.
Assay [4] addresses T1, Prostaglandin G/H synthase 2 (Homo sapiens) (UniProt P35354).
T1 sequence (whole entry): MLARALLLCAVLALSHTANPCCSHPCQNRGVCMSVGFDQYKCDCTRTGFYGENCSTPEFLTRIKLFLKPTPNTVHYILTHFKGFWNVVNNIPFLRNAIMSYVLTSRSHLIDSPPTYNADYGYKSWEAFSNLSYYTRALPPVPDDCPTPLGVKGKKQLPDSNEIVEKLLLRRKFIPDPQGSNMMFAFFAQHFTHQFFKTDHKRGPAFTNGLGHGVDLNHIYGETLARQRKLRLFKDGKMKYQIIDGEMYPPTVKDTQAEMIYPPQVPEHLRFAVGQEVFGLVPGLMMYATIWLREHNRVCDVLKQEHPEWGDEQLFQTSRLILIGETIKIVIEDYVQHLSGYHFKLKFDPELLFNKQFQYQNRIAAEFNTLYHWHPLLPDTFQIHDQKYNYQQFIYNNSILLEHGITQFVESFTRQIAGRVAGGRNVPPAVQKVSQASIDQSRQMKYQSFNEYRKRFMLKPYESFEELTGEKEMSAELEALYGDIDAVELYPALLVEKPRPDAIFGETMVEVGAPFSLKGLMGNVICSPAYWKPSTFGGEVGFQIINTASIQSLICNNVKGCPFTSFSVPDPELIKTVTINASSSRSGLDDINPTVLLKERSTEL
The assay can be described thus: Inhibition of COX2 at 100 ug/mL.

The subject of assay [5] is SF-268. The assay can be described thus: Cytotoxicity against human SF-268 cells by MTT assay. Type of assay: functional.
Assay [6] has as its target Prostaglandin G/H synthase 1 (Homo sapiens) (UniProt P23219). The assay can be described thus: Inhibition of COX1 at 100 ug/mL.
A short description of assay [7]: Cytotoxicity against human HCT 116 cells by MTT assay. Type of assay: functional.

Sequence of Prostaglandin G/H synthase 1 (Homo sapiens) (P23219 whole entry): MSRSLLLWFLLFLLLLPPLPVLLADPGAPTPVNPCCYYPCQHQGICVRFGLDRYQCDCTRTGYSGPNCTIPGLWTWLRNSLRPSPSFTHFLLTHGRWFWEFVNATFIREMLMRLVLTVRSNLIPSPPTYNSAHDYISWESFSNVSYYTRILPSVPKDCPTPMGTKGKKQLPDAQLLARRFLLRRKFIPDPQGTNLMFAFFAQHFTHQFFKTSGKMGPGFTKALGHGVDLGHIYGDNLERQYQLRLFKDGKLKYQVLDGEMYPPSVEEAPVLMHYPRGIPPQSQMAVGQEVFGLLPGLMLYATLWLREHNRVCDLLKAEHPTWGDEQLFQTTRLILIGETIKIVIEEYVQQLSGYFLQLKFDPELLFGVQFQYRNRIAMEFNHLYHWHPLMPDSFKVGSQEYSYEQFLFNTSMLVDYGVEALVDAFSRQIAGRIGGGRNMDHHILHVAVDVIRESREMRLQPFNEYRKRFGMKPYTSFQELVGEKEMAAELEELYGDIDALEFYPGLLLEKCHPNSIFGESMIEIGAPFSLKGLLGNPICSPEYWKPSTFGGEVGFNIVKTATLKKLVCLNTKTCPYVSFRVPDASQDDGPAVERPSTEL

Broadly, the inhibition is the percentage by which the read-out fell short of the control. Read a low inhibition as a response near the control. `CC1=C(CO)C(=O)O[C@@H]([C@@H](C)[C@H]2CC[C@H]3[C@@H]4C[C@H](S[C@H]5C[C@H]6[C@@H]7CC[C@H]([C@H](C)[C@H]8CC(C)=C(CO)C(=O)O8)[C@@]7(C)CC[C@@H]6[C@@]6(C)C(=O)C=C[C@H](O)[C@@]56O)[C@]5(O)[C@@H](O)C=CC(=O)[C@]5(C)[C@H]4CC[C@]23C)C1` [ASHWAGANDHANOLIDE]: the IG50 was 0.43 µg/mL in assay [1]; 1.45 µg/mL in assay [2]; 1.48 µg/mL in assay [3]; 0.84 µg/mL in assay [5]; 1.25 µg/mL in assay [7]. Moreover, the inhibition in assay [4] turned out to be 60%; in assay [6] it was 65%.
